Measured values published in PubChem BioAssay AID2060497 (Molecular Pharmacology Branch, DTP, NCI, 2025).

Test system: 317291-083-R-J1-PDC complex spheroids, viability
Assay: Anticancer human tumor 317291-083-R-J1-PDC patient-derived soft tissue sarcoma cell line growth inhibition [GQUAD]
Conditions: for IC50: curve of first compound; for viability, T/C: stronger effect = lower value
Outline: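 Multi-cell-type spheroids of tumor cells with HUVEC and mesenchymal stem cells, treated with drug combinations. Concentrations descend in half-log steps from near clinical Cmax, or from 10 microM where Cmax is unknown; viability read-out.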

[1] = second compound 0.0316 µM, first compound 0.0316 µM
[2] = second compound 0.0316 µM, first compound 0.1 µM
[3] = second compound 0.0316 µM, first compound 0.316 µM
[4] = second compound 0.0316 µM, first compound 1 µM
[5] = second compound 0.0316 µM, first compound 3.16 µM
[6] = second compound 0.0316 µM, first compound 10 µM
[7] = second compound 0.1 µM, first compound 0.0316 µM
[8] = second compound 0.1 µM, first compound 0.1 µM
[9] = second compound 0.1 µM, first compound 0.316 µM
[10] = second compound 0.1 µM, first compound 1 µM
[11] = second compound 0.1 µM, first compound 3.16 µM
[12] = second compound 0.1 µM, first compound 10 µM
[13] = second compound 0.316 µM, first compound 0.0316 µM
[14] = second compound 0.316 µM, first compound 0.1 µM
[15] = second compound 0.316 µM, first compound 0.316 µM
[16] = second compound 0.316 µM, first compound 1 µM
[17] = second compound 0.316 µM, first compound 3.16 µM
[18] = second compound 0.316 µM, first compound 10 µM
[19] = second compound 1 µM, first compound 0.0316 µM
[20] = second compound 1 µM, first compound 0.1 µM
[21] = second compound 1 µM, first compound 0.316 µM
[22] = second compound 1 µM, first compound 1 µM
[23] = second compound 1 µM, first compound 3.16 µM
[24] = second compound 1 µM, first compound 10 µM
[25] = second compound 3.16 µM, first compound 0.0316 µM
[26] = second compound 3.16 µM, first compound 0.1 µM
[27] = second compound 3.16 µM, first compound 0.316 µM
[28] = second compound 3.16 µM, first compound 1 µM
[29] = second compound 3.16 µM, first compound 3.16 µM
[30] = second compound 3.16 µM, first compound 10 µM
[31] = second compound 10 µM, first compound 0.0316 µM
[32] = second compound 10 µM, first compound 0.1 µM
[33] = second compound 10 µM, first compound 0.316 µM
[34] = second compound 10 µM, first compound 1 µM
[35] = second compound 10 µM, first compound 3.16 µM
[36] = second compound 10 µM, first compound 10 µM
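Note: spheroids exposed to compounds for one week before readout.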
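Throughout, for viability, T/C: percent viability relative to DMSO vehicle wells taken as 100%.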

CC1COCCN1c1cc(-c2ccnn2C)c2ccnc(-c3ccn[nH]3)c2n1 (stereo unspecified) + Cc1[nH]c2ccc(F)cc2c1-c1nc2c3cccnc3c3ncccc3c2[nH]1
IC50 (second compound 0.0316 µM): 88.8 nM | IC50 (second compound 0.1 µM): 75.1 nM | IC50 (second compound 0.316 µM): 64.4 nM | IC50 (second compound 1 µM): 62.5 nM | IC50 (second compound 3.16 µM): 65.4 nM | IC50 (second compound 10 µM): 70.9 nM | viability, T/C [1]: 87.9% | viability, T/C [2]: 45.6% | viability, T/C [3]: 16.4% | viability, T/C [4]: 11.7% | viability, T/C [5]: 13% | viability, T/C [6]: 15.1% | viability, T/C [7]: 89.4% | viability, T/C [8]: 36.9% | viability, T/C [9]: 14.7% | viability, T/C [10]: 13.8% | viability, T/C [11]: 13.6% | viability, T/C [12]: 11.5% | viability, T/C [13]: 77.7% | viability, T/C [14]: 33% | viability, T/C [15]: 13.8% | viability, T/C [16]: 14.1% | viability, T/C [17]: 11.5% | viability, T/C [18]: 14.4% | viability, T/C [19]: 76.1% | viability, T/C [20]: 31.9% | viability, T/C [21]: 18% | viability, T/C [22]: 14.8% | viability, T/C [23]: 15.3% | viability, T/C [24]: 10.1% | viability, T/C [25]: 60.7% | viability, T/C [26]: 43.7% | viability, T/C [27]: 13.3% | viability, T/C [28]: 9.76% | viability, T/C [29]: 9.63% | viability, T/C [30]: 14.1% | viability, T/C [31]: 89% | viability, T/C [32]: 33.4% | viability, T/C [33]: 13.8% | viability, T/C [34]: 8.91% | viability, T/C [35]: 10% | viability, T/C [36]: 12.1%

CC(C)n1c(=O)n(C)c2cnc3cc(F)c(-c4ccc(OCCCN5CCCCC5)nc4)cc3c21 + CN(C)c1ccc(Nc2c3ccc(NC(=O)CCN4CCCC4)cc3nc3cc(NC(=O)CCN4CCCC4)ccc23)cc1
IC50 (second compound 0.0316 µM): 6620 nM | IC50 (second compound 0.1 µM): 3820 nM | IC50 (second compound 0.316 µM): 784 nM | IC50 (second compound 1 µM): 42.8 nM | IC50 (second compound 3.16 µM): < 31.6 nM | IC50 (second compound 10 µM): < 31.6 nM | viability, T/C [1]: 96.6% | viability, T/C [2]: 88.6% | viability, T/C [3]: 92.1% | viability, T/C [4]: 86.7% | viability, T/C [5]: 79% | viability, T/C [6]: 34.3% | viability, T/C [7]: 92.9% | viability, T/C [8]: 79.9% | viability, T/C [9]: 96.3% | viability, T/C [10]: 81.9% | viability, T/C [11]: 56% | viability, T/C [12]: 20.6% | viability, T/C [13]: 92.8% | viability, T/C [14]: 65% | viability, T/C [15]: 57.6% | viability, T/C [16]: 47.2% | viability, T/C [17]: 49.6% | viability, T/C [18]: 10.5% | viability, T/C [19]: 53.7% | viability, T/C [20]: 44.7% | viability, T/C [21]: 24.4% | viability, T/C [22]: 34.4% | viability, T/C [23]: 20.1% | viability, T/C [24]: 7.52% | viability, T/C [25]: 31.8% | viability, T/C [26]: 12.2% | viability, T/C [27]: 12.3% | viability, T/C [28]: 4.69% | viability, T/C [29]: 4.81% | viability, T/C [30]: 1.25% | viability, T/C [31]: 27.5% | viability, T/C [32]: 3.95% | viability, T/C [33]: 0.88% | viability, T/C [34]: 0.42% | viability, T/C [35]: 0.55% | viability, T/C [36]: 4.73%

CC(C)n1c(=O)n(C)c2cnc3cc(F)c(-c4ccc(OCCCN5CCCCC5)nc4)cc3c21 + Cc1cnc(CNC(=O)c2c(=O)c3ccc(N4CCCN(C)CC4)nc3n3c2sc2ccccc23)cn1
IC50 (second compound 0.0316 µM): 858 nM | IC50 (second compound 0.1 µM): < 31.6 nM | IC50 (second compound 0.316 µM): < 31.6 nM | IC50 (second compound 1 µM): < 31.6 nM | IC50 (second compound 3.16 µM): < 31.6 nM | IC50 (second compound 10 µM): < 31.6 nM | viability, T/C [1]: 57.3% | viability, T/C [2]: 51.3% | viability, T/C [3]: 45.1% | viability, T/C [4]: 29.2% | viability, T/C [5]: 73.3% | viability, T/C [6]: 44.5% | viability, T/C [7]: 37.1% | viability, T/C [8]: 37% | viability, T/C [9]: 24.6% | viability, T/C [10]: 25.9% | viability, T/C [11]: 23.9% | viability, T/C [12]: 25.3% | viability, T/C [13]: 21.2% | viability, T/C [14]: 25.9% | viability, T/C [15]: 25.4% | viability, T/C [16]: 22.1% | viability, T/C [17]: 33% | viability, T/C [18]: 17.5% | viability, T/C [19]: 18.2% | viability, T/C [20]: 22.1% | viability, T/C [21]: 23.5% | viability, T/C [22]: 19.4% | viability, T/C [23]: 21.9% | viability, T/C [24]: 21.5% | viability, T/C [25]: 11.4% | viability, T/C [26]: 13.9% | viability, T/C [27]: 29.8% | viability, T/C [28]: 10.7% | viability, T/C [29]: 13.1% | viability, T/C [30]: 11.4% | viability, T/C [31]: 26.2% | viability, T/C [32]: 16.6% | viability, T/C [33]: 10.7% | viability, T/C [34]: 21.9% | viability, T/C [35]: 25.5% | viability, T/C [36]: 23.4%
